# According to patent US20150157588A1, “Pharmaceutical Composition Comprising Amino-Phenyl-Acetic Acid Octadec-(Z)-9-enyl Ester and Use Thereof for Treating Tumors” (Yeda Research and Development Co., Ltd., priority 2012, published 2015):
# How the values were obtained:
# [1] = tested on: p53 expressing L-12 mouse B cell line; experiment: Apoptosis by hypo-diploid nuclei PI staining, transformed B cell line; format: cell-based; conditions: 10 or 100 μg per ml in 5% ethanol solution, 48 h
# Procedure: Apoptosis was measured by FACS analysis with a hypo-diploid nuclei propidium iodide (PI) staining of an amino-phenyl-acetic acid octadec-(Z)-9-enyl ester treated p53 expressing L-12 mouse B cell line. FIGS. 4A-4C: L-12 cells treated with 0, 10 or 100 μg/ml of amino-phenyl-acetic acid octadec-(Z)-9-enyl ester in ethanol solution, respectively; FIGS. 4D-4F: L-12 cells treated with 0, 10 or 100 μg/ml of the control reagent 4-methyl-piperazino-acetic acid ethyl ester in ethanol solution, respectively; and FIGS. 4G-4I: L-12 cells treated with an ethanol volume corresponding to 0, 10 or 100 μg/ml of amino-phenyl-acetic acid octadec-(Z)-9-enyl ester, respectively. FL2-A is the measure of fluorescence. […]
# B or T-cell apoptosis was detected by flow cytometry. […] The cells were then subjected to flow cytometric analysis; for each sample 10,000 were collected and cell-cycle distribution was analyzed according to relative DNA content (PI staining). […] The cells were then collected, stained by APO-DIRECT TUNNEL kit (Phnxflow, CITY, Calif., USA); mitochondrial potential was measured by DePsipher (R&D Systems, Minneapolis, Minn.) according to the manufacturer's procedure. Intracellular caspase activity was measured by Apostat kit (R&D Systems), according to the manufacturer's procedure. The cells were analyzed by Flow cytometry using FACSort (Becton Dickinson) and CellQuest software (Becton Dickinson). […]
# virulent 3LL clone, D122 = experiment: 3LL induced lung carcinoma, intravenous injection of D122 cells, deaths and lung weight; format: in vivo, mouse; conditions: for lung weight of the living mice: in mg (unit assumed); for number of dead mice: groups of 10, control seven
# Procedure: 8-weeks old C57BL/6 male mice in groups of 10 were injected intravenously with 500,000 cells of a virulent 3LL clone, D122. Mice were treated daily for 35 days with either 5% ethanol in PBS (control); 100 μg amino-phenyl-acetic acid octadec-(Z)-9-enyl ester in 5% ethanol in PBS subcutaneously (SC); or 100 μg amino-phenyl-acetic acid octadec-(Z)-9-enyl ester in 5% ethanol in PBS intranasally (IN).
# 8-weeks old C57BL/6 male mice in groups of 10 were injected intravenously with 500,000 cells of a virulent 3LL clone, D122. Mice either left untreated, or were treated daily for 30 days with intranasal administration of either 5% ethanol in PBS (control); 100 μg of amino-phenyl-acetic acid octadec-(Z)-9-enyl ester in PBS; or 100 μg of amino-phenyl-acetic acid octadec-(Z)-9-enyl ester in 5% ethanol in PBS.
# As shown in FIGS. 7A-7D, while treatment with amino-phenyl-acetic acid octadec-(Z)-9-enyl ester in PBS reduced the lung weight of the living mice from 718±351 in the control mice treated with 5% ethanol in PBS to 671±187 (FIGS. 7B-7C), treatment with amino-phenyl-acetic acid octadec-(Z)-9-enyl ester in ethanol solution reduced the lung weight of the living mice to 317±103 (FIG. 7D).
# [2] = 100 μg in 5% ethanol in PBS intranasally daily for 35 days
# [3] = 100 μg in 5% ethanol in PBS subcutaneously daily for 35 days
smiles,measurement,setting,value
CCCCCCCC/C=C\CCCCCCCCOC(=O)C(N)c1ccccc1 (stereo not shown) [amino-phenyl-acetic acid octadec-(Z)-9-enyl ester],apoptosis / cell cycle (cells in sub-GO state),[1],induced massive apoptosis
same,lung weight of the living mice,"virulent 3LL clone, D122; 100 μg in 5% ethanol in PBS intranasally daily for 30 days",317±103
same,number of dead mice,"virulent 3LL clone, D122; [2]",a single mouse
same,lung weight of the living mice,"virulent 3LL clone, D122; [2]",259±84
same,number of dead mice,"virulent 3LL clone, D122; [3]",four
same,lung weight of the living mice,"virulent 3LL clone, D122; [3]",501±252
same,lung weight of the living mice,"virulent 3LL clone, D122; 100 μg in PBS intranasally daily for 30 days",671±187
